Results as given in ChEMBL document CHEMBL4814072, “Chemoenzymatic synthesis of 2,6-disubstituted tetrahydropyrans with high σ1 receptor affinity, antitumor and analgesic activity” (Eur J Med Chem, 2021).
Each block holds one molecule with its values, some of them ahead of it. The source made the active and inactive calls. The calls are words filed in the database; no cut-off is given here.

Columns and labels:
[1] = target: T1, 5-hydroxytryptamine receptor 1A (Homo sapiens) (UniProt P08908); test: Binding affinity to human 5HT1A receptor
T1 sequence (whole entry): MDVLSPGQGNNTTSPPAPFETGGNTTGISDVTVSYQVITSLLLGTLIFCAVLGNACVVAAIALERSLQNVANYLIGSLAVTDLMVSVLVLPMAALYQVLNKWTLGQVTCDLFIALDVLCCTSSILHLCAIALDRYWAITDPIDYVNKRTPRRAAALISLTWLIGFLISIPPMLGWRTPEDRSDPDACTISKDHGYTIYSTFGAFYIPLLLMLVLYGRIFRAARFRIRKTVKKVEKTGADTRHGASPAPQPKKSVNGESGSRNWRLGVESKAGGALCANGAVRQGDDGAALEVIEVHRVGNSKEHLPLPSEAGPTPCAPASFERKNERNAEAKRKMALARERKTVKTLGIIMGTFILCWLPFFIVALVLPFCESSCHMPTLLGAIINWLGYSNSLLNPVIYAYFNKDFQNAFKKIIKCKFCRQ

[2] = target: 5-hydroxytryptamine receptor 2B (Homo sapiens) (UniProt P41595); test: Binding affinity to human 5HT2B receptor
Chain of 5-hydroxytryptamine receptor 2B (Homo sapiens) (P41595 whole entry): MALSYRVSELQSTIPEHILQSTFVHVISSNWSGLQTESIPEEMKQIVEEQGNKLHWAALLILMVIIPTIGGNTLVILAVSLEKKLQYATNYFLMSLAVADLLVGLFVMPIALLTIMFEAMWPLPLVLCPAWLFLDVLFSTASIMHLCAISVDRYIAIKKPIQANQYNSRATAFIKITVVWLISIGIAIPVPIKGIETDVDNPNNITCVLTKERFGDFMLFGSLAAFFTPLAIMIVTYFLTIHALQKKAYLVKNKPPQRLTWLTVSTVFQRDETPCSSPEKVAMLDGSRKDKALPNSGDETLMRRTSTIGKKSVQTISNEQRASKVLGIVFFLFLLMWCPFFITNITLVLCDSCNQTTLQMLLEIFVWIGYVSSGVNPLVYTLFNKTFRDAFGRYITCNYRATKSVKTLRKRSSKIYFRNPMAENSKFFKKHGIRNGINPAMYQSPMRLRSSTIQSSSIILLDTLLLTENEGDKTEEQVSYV

[3] = target: Adrenergic receptor alpha-1 (Homo sapiens) (UniProt P35348+P25100+P35368); test: Binding affinity to human alpha1 adrenergic receptor; type: protein assay
DU-145 = test: Antiproliferative activity against androgen-negative human DU145 cells assessed as inhibition of cell growth at 10 uM measured after 72 hrs by SRB assay; type: functional, cell-based
[4] = target: Mu-type opioid receptor (Homo sapiens) (UniProt P35372); test: Binding affinity to human mu opioid receptor
Chain of Mu-type opioid receptor (Homo sapiens) (P35372 whole entry): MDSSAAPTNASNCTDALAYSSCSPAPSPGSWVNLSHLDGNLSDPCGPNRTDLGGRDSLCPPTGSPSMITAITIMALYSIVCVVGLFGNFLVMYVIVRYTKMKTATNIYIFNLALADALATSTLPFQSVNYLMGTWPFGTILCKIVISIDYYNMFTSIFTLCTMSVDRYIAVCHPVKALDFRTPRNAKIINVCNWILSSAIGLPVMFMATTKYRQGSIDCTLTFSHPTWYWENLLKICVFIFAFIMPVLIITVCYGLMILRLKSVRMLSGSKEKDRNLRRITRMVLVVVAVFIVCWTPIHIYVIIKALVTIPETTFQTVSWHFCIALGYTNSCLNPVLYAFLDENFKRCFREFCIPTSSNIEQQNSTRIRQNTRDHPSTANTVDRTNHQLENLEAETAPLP

Cytochrome P450 1A2 = target: T2, Cytochrome P450 1A2 (Homo sapiens, UniProt P05177); test: Inhibition of CYP1A2 (unknown origin) at 1 uM; type: ADME
T2 sequence (P05177 whole entry): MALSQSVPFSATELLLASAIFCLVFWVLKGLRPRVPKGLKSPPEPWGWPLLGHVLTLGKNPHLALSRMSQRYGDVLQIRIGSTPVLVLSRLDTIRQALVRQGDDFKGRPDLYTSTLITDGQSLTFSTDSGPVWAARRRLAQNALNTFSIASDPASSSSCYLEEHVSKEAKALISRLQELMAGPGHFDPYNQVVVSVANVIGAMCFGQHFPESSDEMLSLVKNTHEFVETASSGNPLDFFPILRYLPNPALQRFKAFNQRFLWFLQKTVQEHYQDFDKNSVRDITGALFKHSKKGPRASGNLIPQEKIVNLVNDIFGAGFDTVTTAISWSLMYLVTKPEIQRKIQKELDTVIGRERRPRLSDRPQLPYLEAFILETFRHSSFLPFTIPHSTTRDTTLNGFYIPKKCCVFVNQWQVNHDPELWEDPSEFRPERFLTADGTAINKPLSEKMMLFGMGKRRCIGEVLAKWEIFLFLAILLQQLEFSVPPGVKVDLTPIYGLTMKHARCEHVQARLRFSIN

[5] = target: Delta-type opioid receptor (Homo sapiens) (UniProt P41143); test: Binding affinity to human delta opioid receptor
Chain of Delta-type opioid receptor (Homo sapiens) (P41143 whole entry): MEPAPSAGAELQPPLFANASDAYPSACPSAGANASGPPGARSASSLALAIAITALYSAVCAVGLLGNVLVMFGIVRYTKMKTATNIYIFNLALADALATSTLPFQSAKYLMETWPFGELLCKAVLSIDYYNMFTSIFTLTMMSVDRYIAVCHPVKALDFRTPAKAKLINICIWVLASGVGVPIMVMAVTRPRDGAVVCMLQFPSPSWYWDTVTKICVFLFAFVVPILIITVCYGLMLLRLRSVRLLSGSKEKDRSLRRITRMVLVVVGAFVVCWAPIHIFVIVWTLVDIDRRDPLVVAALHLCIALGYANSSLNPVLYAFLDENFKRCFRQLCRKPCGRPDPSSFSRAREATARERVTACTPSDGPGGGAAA

[6] = target: T3, Alpha-2A adrenergic receptor (Homo sapiens) (UniProt P08913); test: Binding affinity to human alpha2A adrenergic receptor
T3 sequence (whole entry): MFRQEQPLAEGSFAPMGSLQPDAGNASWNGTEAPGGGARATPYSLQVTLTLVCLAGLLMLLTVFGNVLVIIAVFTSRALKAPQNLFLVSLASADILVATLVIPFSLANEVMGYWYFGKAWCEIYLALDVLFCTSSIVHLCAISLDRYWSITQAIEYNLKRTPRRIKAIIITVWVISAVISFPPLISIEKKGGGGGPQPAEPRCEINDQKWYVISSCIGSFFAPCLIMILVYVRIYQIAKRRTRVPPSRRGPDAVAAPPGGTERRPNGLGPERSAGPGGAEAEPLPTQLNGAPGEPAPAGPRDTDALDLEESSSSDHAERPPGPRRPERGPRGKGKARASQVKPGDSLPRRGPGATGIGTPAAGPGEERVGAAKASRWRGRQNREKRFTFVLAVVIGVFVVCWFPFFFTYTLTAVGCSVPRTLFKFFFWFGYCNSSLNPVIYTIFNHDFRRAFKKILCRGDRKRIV

[7] = target: Sodium-dependent serotonin transporter (Homo sapiens) (UniProt P31645); test: Inhibition of serotonin transporter (unknown origin)
Chain of Sodium-dependent serotonin transporter (Homo sapiens) (P31645 whole entry, looked up): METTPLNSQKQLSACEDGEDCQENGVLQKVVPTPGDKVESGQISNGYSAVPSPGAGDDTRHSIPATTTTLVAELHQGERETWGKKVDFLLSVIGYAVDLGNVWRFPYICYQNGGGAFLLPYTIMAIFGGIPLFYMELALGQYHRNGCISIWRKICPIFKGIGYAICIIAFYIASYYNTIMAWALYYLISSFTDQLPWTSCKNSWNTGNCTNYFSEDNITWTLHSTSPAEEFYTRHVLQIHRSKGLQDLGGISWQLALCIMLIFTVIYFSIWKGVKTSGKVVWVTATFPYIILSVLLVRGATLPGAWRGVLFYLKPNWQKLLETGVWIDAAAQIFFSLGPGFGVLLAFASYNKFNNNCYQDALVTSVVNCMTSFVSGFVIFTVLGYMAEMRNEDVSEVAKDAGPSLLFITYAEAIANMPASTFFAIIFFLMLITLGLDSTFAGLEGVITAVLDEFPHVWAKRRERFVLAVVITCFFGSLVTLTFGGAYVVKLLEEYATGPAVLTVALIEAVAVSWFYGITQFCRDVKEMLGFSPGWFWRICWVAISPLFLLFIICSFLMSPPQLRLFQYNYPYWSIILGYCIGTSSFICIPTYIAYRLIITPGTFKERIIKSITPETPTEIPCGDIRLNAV

Cytochrome P450 2C19 = Cytochrome P450 2C19 (Homo sapiens, UniProt P33261); test: Inhibition of CYP2C19 (unknown origin) at 1 uM; type: ADME
Chain of Cytochrome P450 2C19 (P33261 whole entry): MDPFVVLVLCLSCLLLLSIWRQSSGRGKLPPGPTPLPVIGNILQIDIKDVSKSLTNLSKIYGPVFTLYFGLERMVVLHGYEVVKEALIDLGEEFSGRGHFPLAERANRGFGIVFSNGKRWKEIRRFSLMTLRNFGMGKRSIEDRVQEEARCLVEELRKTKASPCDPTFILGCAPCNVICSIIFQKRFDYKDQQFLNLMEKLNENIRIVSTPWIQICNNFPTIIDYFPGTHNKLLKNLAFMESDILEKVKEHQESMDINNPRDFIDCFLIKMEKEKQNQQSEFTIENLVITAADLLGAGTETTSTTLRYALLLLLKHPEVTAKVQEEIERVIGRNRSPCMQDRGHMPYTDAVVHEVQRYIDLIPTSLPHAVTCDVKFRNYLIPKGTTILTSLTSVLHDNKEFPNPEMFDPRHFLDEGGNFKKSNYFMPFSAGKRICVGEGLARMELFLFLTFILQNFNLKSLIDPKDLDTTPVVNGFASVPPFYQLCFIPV

[8] = target: Sodium-dependent noradrenaline transporter (Homo sapiens) (UniProt P23975); test: Inhibition of noradrenaline transporter (unknown origin)
Chain of Sodium-dependent noradrenaline transporter (Homo sapiens) (P23975 whole entry): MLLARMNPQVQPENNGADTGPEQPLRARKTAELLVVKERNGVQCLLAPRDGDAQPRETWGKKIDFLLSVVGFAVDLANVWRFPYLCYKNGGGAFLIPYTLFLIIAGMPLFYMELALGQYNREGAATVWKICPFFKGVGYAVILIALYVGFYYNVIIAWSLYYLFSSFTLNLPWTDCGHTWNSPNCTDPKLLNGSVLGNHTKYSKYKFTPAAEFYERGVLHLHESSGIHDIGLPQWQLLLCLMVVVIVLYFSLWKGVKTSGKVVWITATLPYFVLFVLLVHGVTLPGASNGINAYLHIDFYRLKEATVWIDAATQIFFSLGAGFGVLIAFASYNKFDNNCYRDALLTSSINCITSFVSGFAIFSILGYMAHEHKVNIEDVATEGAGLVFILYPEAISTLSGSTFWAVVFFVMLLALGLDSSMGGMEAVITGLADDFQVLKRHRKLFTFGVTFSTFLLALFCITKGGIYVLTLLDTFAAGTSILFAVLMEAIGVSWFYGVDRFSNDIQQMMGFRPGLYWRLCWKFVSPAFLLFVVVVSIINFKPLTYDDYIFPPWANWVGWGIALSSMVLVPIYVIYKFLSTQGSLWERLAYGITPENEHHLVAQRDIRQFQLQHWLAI

Cytochrome P450 3A4 = Cytochrome P450 3A4 (Homo sapiens, UniProt P08684); test: Inhibition of CYP3A4 (unknown origin) at 1 uM; type: ADME
Chain of Cytochrome P450 3A4 (P08684 whole entry): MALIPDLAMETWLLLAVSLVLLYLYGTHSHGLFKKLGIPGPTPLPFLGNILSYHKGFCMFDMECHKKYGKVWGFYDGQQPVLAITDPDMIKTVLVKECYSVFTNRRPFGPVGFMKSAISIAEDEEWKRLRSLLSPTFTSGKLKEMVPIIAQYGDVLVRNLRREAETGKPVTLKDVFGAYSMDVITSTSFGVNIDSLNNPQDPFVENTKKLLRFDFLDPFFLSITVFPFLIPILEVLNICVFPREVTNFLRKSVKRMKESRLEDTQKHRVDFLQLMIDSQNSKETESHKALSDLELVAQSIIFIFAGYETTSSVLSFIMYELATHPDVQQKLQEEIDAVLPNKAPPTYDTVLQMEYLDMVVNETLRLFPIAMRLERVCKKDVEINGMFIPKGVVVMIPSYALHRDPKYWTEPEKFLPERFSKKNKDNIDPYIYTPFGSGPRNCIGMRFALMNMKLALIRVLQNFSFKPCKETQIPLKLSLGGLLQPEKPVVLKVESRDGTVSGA

[9] = target: Kappa-type opioid receptor (Homo sapiens) (UniProt P41145); test: Binding affinity to human kappa opioid receptor
Chain of Kappa-type opioid receptor (Homo sapiens) (P41145 whole entry): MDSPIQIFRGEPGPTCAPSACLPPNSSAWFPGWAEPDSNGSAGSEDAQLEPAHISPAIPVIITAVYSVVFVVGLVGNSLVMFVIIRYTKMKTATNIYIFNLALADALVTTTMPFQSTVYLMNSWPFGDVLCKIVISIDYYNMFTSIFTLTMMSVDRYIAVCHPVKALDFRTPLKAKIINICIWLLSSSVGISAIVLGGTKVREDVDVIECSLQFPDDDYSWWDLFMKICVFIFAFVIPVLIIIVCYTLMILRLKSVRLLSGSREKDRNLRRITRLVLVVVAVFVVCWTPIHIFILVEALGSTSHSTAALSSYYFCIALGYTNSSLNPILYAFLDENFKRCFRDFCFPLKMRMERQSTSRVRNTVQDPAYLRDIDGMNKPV

Cytochrome P450 2C9 = Cytochrome P450 2C9 (Homo sapiens, UniProt P11712); test: Inhibition of CYP2C9 (unknown origin) at 1 uM; type: ADME
Chain of Cytochrome P450 2C9 (P11712 whole entry): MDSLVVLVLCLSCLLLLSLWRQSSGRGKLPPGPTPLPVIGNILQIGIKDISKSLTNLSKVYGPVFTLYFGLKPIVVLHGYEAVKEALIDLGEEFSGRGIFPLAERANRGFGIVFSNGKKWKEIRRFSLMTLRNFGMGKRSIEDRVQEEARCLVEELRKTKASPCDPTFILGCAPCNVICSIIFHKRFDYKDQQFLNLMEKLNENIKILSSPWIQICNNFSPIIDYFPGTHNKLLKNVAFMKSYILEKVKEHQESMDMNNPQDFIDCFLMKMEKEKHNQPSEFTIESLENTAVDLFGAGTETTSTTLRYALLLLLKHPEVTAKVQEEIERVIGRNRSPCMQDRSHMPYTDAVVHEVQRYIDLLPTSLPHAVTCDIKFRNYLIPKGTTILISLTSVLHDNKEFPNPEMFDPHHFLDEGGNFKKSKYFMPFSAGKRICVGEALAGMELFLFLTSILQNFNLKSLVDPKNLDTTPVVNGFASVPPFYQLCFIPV

Mus musculus = test: Antiallodynic activity in CD-1 mouse assessed as analgesia at 40 mg/kg, sc administered 30 mins prior to capsaicin stimulation and measured after 15 mins by von Frey test (reference value: 97.3 %); type: functional; settings: time 45 min, 0.75 h
[10] = target: Sodium-dependent dopamine transporter (Homo sapiens) (UniProt Q01959); test: Inhibition of dopamine transporter (unknown origin)
[11] = target: T4, Sigma intracellular receptor 2 (Rattus norvegicus, UniProt Q5U3Y7); test: Displacement of [3H]-di-o-tolylguanidine from sigma2 receptor in rat liver membrane by solid scintillation counting method; type: cell membranes
T4 sequence (Q5U3Y7 whole entry): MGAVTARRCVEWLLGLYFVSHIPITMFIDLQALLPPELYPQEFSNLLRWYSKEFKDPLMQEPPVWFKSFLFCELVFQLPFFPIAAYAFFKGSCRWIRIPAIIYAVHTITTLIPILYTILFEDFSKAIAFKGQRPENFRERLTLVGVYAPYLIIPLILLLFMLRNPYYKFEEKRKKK

[12] = target: Sigma non-opioid intracellular receptor 1 (Cavia porcellus, UniProt Q60492)
Chain of Sigma non-opioid intracellular receptor 1 (Q60492 whole entry): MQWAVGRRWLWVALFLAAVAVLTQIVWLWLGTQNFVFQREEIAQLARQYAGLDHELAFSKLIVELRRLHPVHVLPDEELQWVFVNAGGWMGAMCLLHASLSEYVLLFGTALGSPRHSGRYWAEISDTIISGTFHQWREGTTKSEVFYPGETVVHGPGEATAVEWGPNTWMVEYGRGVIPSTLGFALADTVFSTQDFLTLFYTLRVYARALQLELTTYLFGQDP

[13] = target: Sigma intracellular receptor 2 (Rattus norvegicus) (UniProt Q5U3Y7); test: Displacement of [3H]-di-o-tolylguanidine from sigma2 receptor in rat liver membrane at 1 uM by solid scintillation counting method; type: cell membranes
[14] = target: Sigma non-opioid intracellular receptor 1 (Cavia porcellus) (UniProt Q60492); test: Displacement of [3H]-(+)-pentazocine from sigma1 receptor in guinea pig brain membrane at 1 uM measured after 120 mins by solid scintillation counting method; type: cell membranes
Chain of Sigma non-opioid intracellular receptor 1 (Cavia porcellus) (Q60492 whole entry): as above

[15] = target: Glutamate [NMDA] receptor (Homo sapiens) (UniProt Q05586+Q12879+Q13224+O15399+O60391+Q14957+Q8TCU5); test: Displacement of [3H]-(+)-MK801 from PCP binding site of NMDA receptor (unknown origin); type: protein-complex assay; settings: dose 1.0 µM
[16] = Selectivity ratio of Ki for sigma2 receptor in rat liver membrane to Ki for sigma1 receptor in guinea pig brain membrane; type: cell membranes

SMILES: c1ccc(CNCC[C@H]2CCC[C@@H](c3ccccc3)O2)cc1
Activity [1]: inactive
Activity [2]: inactive
Activity [3]: inactive
Activity (DU-145): Active
Activity [4]: inactive
inhibition (INH) (Cytochrome P450 1A2): Not Active
Activity [5]: inactive
Activity [6]: inactive
inhibition [7]: inactive
inhibition (INH) (Cytochrome P450 2C19): Not Active
inhibition [8]: inactive
inhibition (INH) (Cytochrome P450 3A4): Not Active
Activity [9]: inactive
inhibition (INH) (Cytochrome P450 2C9): Not Active
Activity (Mus musculus): 55%
inhibition [10]: inactive
Ki [11]: 426 nM
Ki [12]: 5.4 nM

SMILES: CN(C)CC[C@H]1CCC[C@@H](c2ccccc2)O1
inhibition [15]: 31%
Ki [11]: 4000 nM
Ki [12]: 217 nM

SMILES: c1ccc(CNCC[C@@H]2CCC[C@H](c3ccccc3)O2)cc1
Ratio Ki [16]: 236
Activity [1]: inactive
Activity [2]: inactive
Activity [3]: inactive
Activity (DU-145): Active
Activity [4]: inactive
inhibition (INH) (Cytochrome P450 1A2): Not Active
Activity [5]: inactive
Activity [6]: inactive
inhibition [7]: inactive
inhibition (INH) (Cytochrome P450 2C19): Not Active
inhibition [8]: inactive
inhibition (INH) (Cytochrome P450 3A4): Not Active
Activity [9]: inactive
inhibition (INH) (Cytochrome P450 2C9): Not Active
Activity (Mus musculus): 21%
inhibition [10]: inactive
Ki [11]: 378 nM
Ki [12]: 1.6 nM

SMILES: c1ccc([C@@H]2CCC[C@H](CCNCC3CCCCC3)O2)cc1
Activity [1]: inactive
Activity [2]: inactive
Activity [3]: inactive
Activity (DU-145): Active
Activity [4]: inactive
inhibition (INH) (Cytochrome P450 1A2): Not Active
Activity [5]: inactive
Activity [6]: inactive
inhibition [15]: 7%
inhibition [7]: inactive
inhibition (INH) (Cytochrome P450 2C19): Not Active
inhibition [8]: inactive
inhibition (INH) (Cytochrome P450 3A4): Not Active
Activity [9]: inactive
inhibition (INH) (Cytochrome P450 2C9): Not Active
Activity (Mus musculus): 53%
inhibition [10]: inactive
Ki [11]: 36 nM
Ki [12]: 2.4 nM

SMILES: CN(C)CC[C@@H]1CCC[C@H](c2ccccc2)O1
inhibition [15]: 37%
Ki [11]: 2300 nM
Ki [12]: 465 nM

SMILES: Cc1cc(OCCN2CCOCC2)nn1-c1ccc2ccccc2c1
Activity (Mus musculus): 97%

SMILES: c1ccc([C@H]2CCC[C@@H](CCNCC3CCCCC3)O2)cc1
Activity [1]: inactive
Activity [2]: inactive
Activity [3]: inactive
Activity (DU-145): Active
Activity [4]: inactive
inhibition (INH) (Cytochrome P450 1A2): Not Active
Activity [5]: inactive
Activity [6]: inactive
inhibition [15]: 33%
inhibition [7]: inactive
inhibition (INH) (Cytochrome P450 2C19): Not Active
inhibition [8]: inactive
inhibition (INH) (Cytochrome P450 3A4): Not Active
Activity [9]: inactive
inhibition (INH) (Cytochrome P450 2C9): Not Active
Activity (Mus musculus): 67%
inhibition [10]: inactive
Ki [11]: 57 nM
Ki [12]: 0.95 nM

Continued, values first:

inhibition [13]: 10%
inhibition [14]: 4%
inhibition [15]: 43%
SMILES: NCC[C@H]1CCC[C@@H](c2ccccc2)O1

Ki [11]: 161 nM
Ki [12]: 57 nM
SMILES: c1ccc([C@@H]2CCC[C@H](CCN3CCN(c4ccccc4)CC3)O2)cc1

Ki [11]: 115 nM
Ki [12]: 60 nM
SMILES: c1ccc([C@H]2CCC[C@@H](CCN3CCCC3)O2)cc1

inhibition [15]: 43%
Ki [11]: 234 nM
Ki [12]: 15 nM
SMILES: c1ccc(CCCCNCC[C@@H]2CCC[C@H](c3ccccc3)O2)cc1

inhibition [15]: 42%
Ki [11]: 377 nM
Ki [12]: 29 nM
SMILES: c1ccc(CCCCNCC[C@H]2CCC[C@@H](c3ccccc3)O2)cc1

inhibition [15]: 7%
Ki [11]: 131 nM
Ki [12]: 21 nM
SMILES: c1ccc([C@H]2CCC[C@@H](CCN3CCN(c4ccccc4)CC3)O2)cc1

inhibition [13]: 5%
inhibition [14]: 9%
inhibition [15]: 14%
SMILES: NCC[C@@H]1CCC[C@H](c2ccccc2)O1

Ki [11]: 170 nM
Ki [12]: 31 nM
SMILES: c1ccc([C@@H]2CCC[C@H](CCN3CCCC3)O2)cc1
